In PubChem BioAssay AID588714 (Southern Research Specialized Biocontainment Screening …, 2011):
Records with an inconclusive call do not appear. Calls of active or inactive are those of the source.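 Rule for the calls: active = viability below 80% at one or more tested concentrations, meaning the compound is toxic to the cells; inconclusive = replicate runs disagree on whether viability fell below 80%; inactive = viability of 80% or more at every dose.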

Test system: not listed separately
Test: Vero E6 cell cytotoxicity, dose response, cytotoxicity control for P. falciparum PFM18AAP inhibitor project, M18 aspartyl aminopeptidase campaign (AID 588714)
Conditions: Vero E6 viability, CellTiter-Glo luminescence, 72 h; at 25 µM (top of the series)
For `O=C(O)CCCCNc1c2ccccc2nc2ccccc12`, the viability was 96.8% (inactive).
In the case of `O=C(O)CCCNc1c2ccccc2nc2ccccc12`, the viability is reported as 103% (inactive).

Same assay, conditions: Vero E6 viability, CellTiter-Glo luminescence, 72 h; at 50 µM (top of the series)
For `COc1ccc(CC(=O)O)cc1OC`, the viability was 108% (inactive).
In the case of `O=C(c1ccco1)N1CCN(Cc2cc(=O)c(O)co2)CC1`, the viability is reported as 92.2% (inactive).
In the case of `O=c1cc(CO)oc(CN2CCCCC2)c1O`, the viability is reported as 99.7% (inactive).
With `COc1ccc(CCNC2CCN(C)CC2)cc1OC` the viability was 97.5% (inactive).
For `CCC(C)c1ccc(N)c(O)c1` (stereo not given), the viability was 103% (inactive).
For `O=C(c1ccco1)N1CCN(Cc2cc(=O)c(O)c[nH]2)CC1`, the viability was 100% (inactive).
In the case of `COc1ccc(CCN2CCN(C)CC2)cc1OC`, the viability is reported as 98% (inactive).
In the case of `O=C1OCCN1CCc1nc(-c2ccc(O)c(O)c2)cs1`, the viability is reported as 92.6% (inactive).
In the case of `COc1ccc(CCN(C)c2ccncc2)cc1OC`, the viability is reported as 83.9% (inactive).
For `Oc1ccc(CCNc2c3c(nc4ccccc24)CCCC3)cc1O`, the viability was 92.2% (inactive).
With `COc1ccc(CCC(=O)O)cc1OC` the viability was 94.6% (inactive).
For `CN(CCc1ccc(O)c(O)c1)c1ccncc1`, the viability was 99.3% (inactive).
For `Nc1cc(C(=O)c2ccccc2)ccc1O`, the viability was 104% (inactive).
For `CCC(C)C(=O)Nc1ccccc1N` (stereo not given), the viability was 105% (inactive).
In the case of `Oc1ccc(CCN2CCc3ccccc3C2)cc1O`, the viability is reported as 85.7% (inactive).
With `COc1ccc(CCNc2ccncc2)cc1OC` the viability was 87.5% (inactive).
With `CCC(C)C(=O)Nc1ccccc1O` (stereo not given) the viability was 99.8% (inactive).
For `Cc1c(-c2ccccc2)[nH]c(-c2ccc(O)c(O)c2)[n+]1O`, the viability was 97.2% (inactive).
In the case of `COc1ccc(CCN2CCc3ccccc3C2)cc1OC`, the viability is reported as 86.9% (inactive).
With `Cc1c(O)c(=O)ccn1CCNc1c2ccccc2nc2ccccc12` the viability was 89.4% (inactive).

Test system: Vero E6 viability, CellTiter-Glo luminescence, 72 h
Test: as above
Conditions: not given
Compound `COc1ccc(CNc2c3ccccc3nc3ccccc23)cc1OC` has a CC50 of 5.37 µM.
`O=c1cc(CN2CCN(Cc3ccccc3)CC2)c2ccc(O)c(O)c2o1` showed a CC50 of 15.9 µM.
For `Cc1ccc(-c2nc(-c3ccc(O)c(O)c3)cs2)cc1`, the CC50 was 24.5 µM.
For `COc1ccc(CCNc2c3ccccc3nc3ccccc23)cc1`, the CC50 was 14.9 µM.
`O=c1ccc2cc(O)c(O)cc2o1` showed a CC50 of 38.2 µM.
`Oc1ccc(CCNc2c3ccccc3nc3ccccc23)cc1` gave a CC50 of 7.34 µM.
`Oc1ccc(-c2csc(Cc3cc4ccccc4[nH]3)n2)cc1O` showed a CC50 of 15.5 µM.
Work on `COc1ccc(CCCNc2c3ccccc3nc3ccccc23)cc1OC` yielded a CC50 of 21.8 µM.
In the case of `Cc1nc(NCCc2ccc(O)c(O)c2)c2c3c(sc2n1)CCC3`, the CC50 is reported as 43.7 µM.
In the case of `NCc1cc2c3c(c(=O)oc2c(O)c1O)CCC3`, the CC50 is reported as 29.2 µM.
In the case of `CCOc1cccc(-c2nc(-c3ccc(O)c(O)c3)cs2)c1`, the CC50 is reported as 21.2 µM.
Compound `NCCNc1c2ccccc2nc2ccccc12` has a CC50 of 45.3 µM.
Work on `COc1ccc(CCN(C)c2c3ccccc3nc3ccccc23)cc1OC` yielded a CC50 of 15.9 µM.
In the case of `Oc1ccc(CCNc2ccc3ccccc3c2)cc1O`, the CC50 is reported as 28.3 µM.
With `CC(C)(C)C(=O)OCc1nc(-c2ccc(O)c(O)c2)cs1` the CC50 was 31.6 µM.
In the case of `O=S1(=O)c2ccccc2-c2cc(-c3nc(-c4ccc(O)c(O)c4)[nH]c3-c3ccccc3)ccc21`, the CC50 is reported as 19.4 µM.
In the case of `COc1ccc(CCNc2c3ccccc3nc3ccccc23)cc1OC`, the CC50 is reported as 12.6 µM.
Compound `Oc1ccc(CNc2c3ccccc3nc3ccccc23)cc1O` has a CC50 of 7.78 µM.
`COc1cccc(CCNc2c3ccccc3nc3ccccc23)c1` gave a CC50 of 8.75 µM.
Compound `Oc1ccc(CCNC(c2ccccc2)c2ccccc2)cc1O` has a CC50 of 36.3 µM.
`Oc1ccc(CCNc2cncc3ccccc23)cc1O` gave a CC50 of 37.7 µM.
Work on `O=C1c2ccc3c4c(ccc(c24)C(=O)N1O)CC3` yielded a CC50 of 9.17 µM.
`Oc1ccc(CCNc2cccc3ccccc23)cc1O` gave a CC50 of 16.5 µM.
